{"source": "patent US20250136593A1", "about": "“DEGRADATION AGENT AND USE THEREOF” (HITGEN INC., priority 2021, published 2025)", "note": "pIC50: −log10 of the molar value."}
{"biological_target": "ternary complex between BCL-XL and CRBN-DDB1 (Homo sapiens, UniProt Q07817+Q96SW2)", "sequence (Q07817 whole entry)": "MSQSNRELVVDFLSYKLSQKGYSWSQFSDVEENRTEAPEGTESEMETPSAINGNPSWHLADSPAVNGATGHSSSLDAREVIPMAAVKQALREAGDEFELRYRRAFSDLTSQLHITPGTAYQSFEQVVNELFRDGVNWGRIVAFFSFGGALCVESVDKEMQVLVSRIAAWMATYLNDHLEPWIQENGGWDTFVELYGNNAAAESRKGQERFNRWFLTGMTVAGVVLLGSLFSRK", "sequence (Q96SW2 whole entry)": "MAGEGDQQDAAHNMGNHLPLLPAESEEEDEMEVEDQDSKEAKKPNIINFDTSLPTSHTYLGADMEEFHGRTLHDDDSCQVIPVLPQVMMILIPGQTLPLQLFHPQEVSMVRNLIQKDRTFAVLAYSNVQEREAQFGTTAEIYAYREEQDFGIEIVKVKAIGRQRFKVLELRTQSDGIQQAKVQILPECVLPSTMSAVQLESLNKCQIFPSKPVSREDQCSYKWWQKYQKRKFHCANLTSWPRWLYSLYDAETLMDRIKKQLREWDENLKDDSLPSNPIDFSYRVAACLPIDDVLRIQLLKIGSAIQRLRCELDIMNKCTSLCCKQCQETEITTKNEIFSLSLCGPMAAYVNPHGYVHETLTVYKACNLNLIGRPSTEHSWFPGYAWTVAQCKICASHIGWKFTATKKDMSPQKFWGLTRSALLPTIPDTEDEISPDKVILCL", "sequence (Q16531 whole entry partner)": "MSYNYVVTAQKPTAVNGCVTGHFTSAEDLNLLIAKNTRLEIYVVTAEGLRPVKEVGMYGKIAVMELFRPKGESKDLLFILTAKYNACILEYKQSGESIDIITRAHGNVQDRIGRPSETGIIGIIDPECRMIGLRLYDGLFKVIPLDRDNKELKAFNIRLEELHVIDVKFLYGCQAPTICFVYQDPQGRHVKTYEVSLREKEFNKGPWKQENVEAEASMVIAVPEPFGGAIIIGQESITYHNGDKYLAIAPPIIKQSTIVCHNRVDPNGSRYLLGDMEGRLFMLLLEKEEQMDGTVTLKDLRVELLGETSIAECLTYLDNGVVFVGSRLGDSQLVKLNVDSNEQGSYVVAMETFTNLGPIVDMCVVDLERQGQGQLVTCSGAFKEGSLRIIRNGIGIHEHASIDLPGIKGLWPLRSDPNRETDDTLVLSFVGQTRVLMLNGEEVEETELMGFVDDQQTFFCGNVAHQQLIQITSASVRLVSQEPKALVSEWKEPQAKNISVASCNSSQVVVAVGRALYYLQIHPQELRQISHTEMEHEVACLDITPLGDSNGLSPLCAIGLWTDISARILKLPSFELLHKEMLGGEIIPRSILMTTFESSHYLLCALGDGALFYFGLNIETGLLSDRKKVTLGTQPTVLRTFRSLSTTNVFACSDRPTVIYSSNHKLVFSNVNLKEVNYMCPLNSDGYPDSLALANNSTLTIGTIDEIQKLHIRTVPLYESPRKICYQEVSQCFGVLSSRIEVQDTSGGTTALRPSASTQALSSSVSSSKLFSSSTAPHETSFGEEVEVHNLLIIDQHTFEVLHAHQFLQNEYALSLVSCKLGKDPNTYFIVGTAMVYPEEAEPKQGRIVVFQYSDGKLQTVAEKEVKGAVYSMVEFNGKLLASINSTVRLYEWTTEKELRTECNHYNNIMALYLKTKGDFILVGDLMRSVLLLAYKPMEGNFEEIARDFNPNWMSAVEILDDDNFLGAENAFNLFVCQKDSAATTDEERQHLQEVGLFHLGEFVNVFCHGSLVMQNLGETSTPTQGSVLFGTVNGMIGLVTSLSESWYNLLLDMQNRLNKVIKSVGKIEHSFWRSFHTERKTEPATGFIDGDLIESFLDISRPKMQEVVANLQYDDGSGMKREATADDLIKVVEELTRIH", "test": "Compound-induced formation of ternary complex between BCL-XL and CRBN-DDB1 by AlphaLISA", "format": "biochemical", "parameters": "key: the number of + indicates the intensity of AlphaLISA peak signal; ++: the number of + indicates the intensity of AlphaLISA peak signal; +++: the number of + indicates the intensity of AlphaLISA peak signal; ++++: the number of + indicates the intensity of AlphaLISA peak signal; +++++: the number of + indicates the intensity of AlphaLISA peak signal", "settings": "peak signal; 60 nM Strep-BCL-XL and 60 nM His-CRBN/DDB1", "description": "Experimental Example 4, Detection of Compound-Induced Formation of Ternary Complex Between BCL-XL and CRBN-DDB1 by AlphaLISA Method\nNa2HPO4(Sigma), NaH2PO4(Sigma), sodium chloride (Sigma), Tween-20 (Sigma), AlphaLISA®Nikel Chelate Acceptor beads (PerkinElmer), Strep-Tactin® Alpha Donor beads (PerkinElmer), Assay plate (Corning), Strep-BCl-XL (HitGen), His-CRBN/DDB1 (HitGen).\nDMSO was used to dissolve the dry powder of the test compound to obtain a 10.00 mM solution. The instrument ECHO was used to perform gradient dilution of the compound, which was then added to a 384-well reaction plate (Corning, Cat #3824), so that the final concentration of DMSO in the entire reaction system (10.0 μL) was less than 1%, and the same amount of DMSO was added and used as a control.\nStrep-BCl-XL and His-CRBN/DDB1 proteins were dissolved in buffer (10 mM NaH2PO4, 40 mM Na2HPO4, 150 mM sodium chloride, 0.03% Tween20, pH=7.4) to obtain a protein mixture of 60 nM Strep-BCL-XL and 60 nM His-CRBN/DDB1, the protein mixture (5ul/well) was added to the 384-well plate in which the compound had been added, and incubated at room temperature for 30 minutes, then 5 μl of a detection mixture with 50 μg/ml AlphaLISA®Nikel Chelate Acceptor beads and 50 μg/ml Strep-Tactin® Alpha Donor beads was added, and incubated at room temperature for 2 hours; and then a microplate reader was used to detect AlphaLISA signal.\nFifth order polynomial or Sixth order polynomial in Polynomial of Graphpad 6.0 was used for data fitting."}
{"smiles": "C=Cc1cc(-c2nc3c(c(NC)n2)CCN(C(=O)c2ccc(COc4ccc(C#CCN(C)CCCCOc5cccc6c5C(=O)N(C5CCC(=O)NC5=O)C6=O)cc4)cc2)C3)cnc1C=C", "note": "(stereo not drawn) [Compound B2]", "AlphaLISA signal (PROTAC ternary complex signal intensity)": "+"}
{"smiles": "C/C=c1/cc(-c2nc3c(c(NC)n2)CCN(C(=O)c2ccc(COc4ccc(C#CCN(C)CCCCCOc5cccc6c5C(=O)N(C5CCC(=O)NC5=O)C6=O)cc4)cc2)C3)cn/c1=C/C", "note": "(stereo not drawn) [Compound B3]", "AlphaLISA signal (PROTAC ternary complex signal intensity)": "+"}
{"smiles": "C=Cc1cc(-c2nc3c(c(NC)n2)CCN(C(=O)c2ccc(COc4ccc(C#CCN5CCN(CCCCCCNc6cccc7c6C(=O)N(C6CCC(=O)NC6=O)C7=O)CC5)cc4)cc2)C3)cnc1C=C", "note": "(stereo not drawn) [Compound C2-4]", "AlphaLISA signal (PROTAC ternary complex signal intensity)": "++++"}
{"smiles": "C=Cc1cc(-c2nc3c(c(NC)n2)CCN(C(=O)c2ccc(COc4ccc(C#CCN5CCN(CCCCCCCCNc6cccc7c6C(=O)N(C6CCC(=O)NC6=O)C7=O)CC5)cc4)cc2)C3)cnc1C=C", "note": "(stereo not drawn) [Compound C2-5]", "AlphaLISA signal (PROTAC ternary complex signal intensity)": "+++"}
{"smiles": "C=Cc1cc(-c2ncc3c(n2)CN(C(=O)c2ccc(/C=C/c4ccc(C#CCN5CCN(CCCCCCOc6cccc7c6C(=O)N(C6CCC(=O)NC6=O)C7=O)CC5)cc4)cc2)CC3)cnc1C=C", "note": "(stereo not drawn) [Compound C3-3]", "AlphaLISA signal (PROTAC ternary complex signal intensity)": "+"}
{"smiles": "C=Cc1cc(-c2ncc3c(n2)CN(C(=O)c2ccc(COc4ccc(C#CCN5CCN(CCCCCOc6cccc7c6C(=O)N(C6CCC(=O)NC6=O)C7=O)CC5)cc4)cn2)CC3)cnc1C=C", "note": "(stereo not drawn) [Compound C3-10]", "AlphaLISA signal (PROTAC ternary complex signal intensity)": "++"}
{"smiles": "C=Cc1cc(-c2ncc3c(n2)CN(C(=O)c2ccc(COc4ccc(C#CCN5CCN(CCCCCOc6cccc7c6C(=O)N(C6CCC(=O)NC6=O)C7=O)CC5)nc4)cc2)CC3)cnc1C=C", "note": "(stereo not drawn) [Compound C3-13]", "AlphaLISA signal (PROTAC ternary complex signal intensity)": "+"}
{"system": "MOLT-4 cells", "test": "Inhibitory activity on MOLT4 cell proliferation by Cell Titer-Glo method", "format": "cell-based", "settings": "Homo sapiens, 72 hours incubation, read-out: IC50 concentration for inhibiting MOLT-4 cells", "description": "Experimental Example 5, Evaluation Experiment of Inhibitory Activity of Compound on MOLT4 Cell Proliferation by Cell Titer-Glo Method\nRPMI medium modified (Hyclone), FBS (Corning), Dimethyl Sulfoxide, P/S, CellTiter-Gbo Luminescent Cell Viability Assay (Promega), MOLT-4 cell (ATCC).\nMOLT-4 cells were cultured in monolayer in vitro in an incubator containing 5% CO2 air at 37° C. The culture medium was RPMI 1640 with 10% FBS and 1% P/S. 15 μL of MOLT4 cells, containing 5×10^4 cells per ml, was inoculated to a 384-well plate (Corning, 3707), 750 cells/well, and incubated at 37° C. and 5% CO2 for 30 minutes. Then the compound that had been diluted in advance was added, with a total of 9 concentration points, and 2 parallel repetitions for each concentration point. The cell growing group without adding the compound was used as a negative control (maximum signal control), and the culture medium group was used as a blank control (minimum signal control). At the same time, it was ensured that the final DMSO content in each reaction well was 0.1%. The compound and the cells were incubated in a cell culture incubator at 37° C., 5% CO2 for 3 days (72 hours).\nThe 384-well plate was taken out from the cell culture incubator and allowed to stand at room temperature, equilibrated for 20 to 30 minutes, and then 25 μl of Cell Titer-Glo detection reagent was added to each reaction well, lysed on a shaker for 2 minutes, incubated for 10 minutes, and BMG PHERAStar (Luminescence) was used for reading.\nThe inhibition rate was calculated based on the luminescence signals: the average value of the negative control (maximum signal control) and the blank control (minimum signal control) was first calculated, then the inhibition rates of the compound at different concentrations for the cells were calculated as follows:\nThe IC50 of the compound to inhibit cell activity was calculated by fitting with GraphPad Prism 6 using log(inhibitor) vs. response−Variable slope mode. The fitting equation was: Y=Bottom+(Top−Bottom)/(1+10^((LogIC50−X)*HillSlope)), wherein Y represented the inhibition rate and X represented the known compound concentration after Log."}
{"smiles": "C/C=c1/cc(-c2ncc3c(n2)CN(C(=O)c2ccc(/C=C/c4ccc(C#CCN5CCN(CCCCCCc6cccc7c6CN(C6CCC(=O)NC6=O)C7=O)CC5)cc4)cc2)CC3)cn/c1=C/C", "note": "(stereo not drawn) [Compound C1-2]", "pIC50": "< 3.70"}
{"smiles": "C=Cc1cc(-c2ncc3c(n2)CN(C(=O)c2ccc(/C=C/c4ccc(C#CCN5CCN(CCCCc6ccc7c(c6)CN(C6CCC(=O)NC6=O)C7=O)CC5)cc4)cc2)CC3)cnc1C=C", "note": "(stereo not drawn) [Compound C1-3]", "pIC50": "5.00 to 6.00"}
{"smiles": "CNc1nc(-c2cnc3ccccc3c2)nc2c1CCN(C(=O)c1ccc(/C=C/c3ccc(C#CCN4CCN(CCCCCc5cccc6c5CN(C5CCC(=O)NC5=O)C6=O)CC4)cc3)cc1)C2", "note": "(stereo not drawn) [Compound C1-4]", "pIC50": "5.00 to 6.00"}
{"smiles": "C=Cc1cc(-c2nc3c(c(NC)n2)CCN(C(=O)c2ccc(COc4ccc(C#CCN5CCN(CCCNc6cccc7c6C(=O)N(C6CCC(=O)NC6=O)C7=O)CC5)cc4)cc2)C3)cnc1C=C", "note": "(stereo not drawn) [Compound C2-6]", "pIC50": "5.00 to 6.00"}
{"smiles": "C=Cc1cc(-c2ncc3c(n2)CN(C(=O)c2ccc(/C=C/c4ccc(C#CCN5CCN(CCCCCOc6cccc7c6C(=O)N(C6CCC(=O)NC6=O)C7=O)CC5)nc4)cc2)CC3)cnc1C=C", "note": "(stereo not drawn) [Compound C3-8]", "pIC50": "< 3.70"}
{"smiles": "C=Cc1cc(-c2nc3c(c(NC)n2)CCN(C(=O)c2ccc(COc4ccc(C#CCN5CCN(CCCCCOc6cccc7c6C(=O)N(C6CCC(=O)NC6=O)C7=O)CC5)cc4)cn2)C3)cnc1C=C", "note": "(stereo not drawn) [Compound C3-11]", "pIC50": "3.70 to 4.00"}
{"smiles": "C=Cc1cc(-c2ncc3c(n2)CN(C(=O)c2ccc(COc4ccc(C#CCN5CCN(CCCCCOc6cccc7c6C(=O)N(C6CCC(=O)NC6=O)C7=O)CC5)cc4)nc2)CC3)cnc1C=C", "note": "(stereo not drawn) [Compound C3-12]", "pIC50": "4.00 to 4.30"}
{"smiles": "O=C1CCC(N2Cc3cc(C#CCCCN4CCN(CC#Cc5ccc(/C=C/c6ccc(C(=O)N7CCc8cnc(-c9cnc%10ccccc%10c9)nc8C7)cc6)cc5)CC4)ccc3C2=O)C(=O)N1", "note": "(stereo not drawn) [Compound D2-3]", "pIC50": "< 3.70"}
{"smiles": "O=C1CCC(N2Cc3c(C#CCCCCN4CCN(CC#Cc5ccc(/C=C/c6ccc(C(=O)N7CCc8cnc(-c9cnc%10ccccc%10c9)nc8C7)cc6)cc5)CC4)cccc3C2=O)C(=O)N1", "note": "(stereo not drawn) [Compound D2-5]", "pIC50": "3.70 to 4.00"}
{"smiles": "CNc1nc(-c2cnc3ccccc3c2)nc2c1CCN(C(=O)c1ccc(/C=C/c3ccc(C#CCN4CCN(CCCCC#Cc5cccc6c5CN(C5CCC(=O)NC5=O)C6=O)CC4)cc3)cc1)C2", "note": "(stereo not drawn) [Compound D2-7]", "pIC50": "3.70 to 4.00"}
{"smiles": "O=C1CCC(c2cccc(C#CCCN3CCN(CC#Cc4ccc(OCC56CC(C(=O)N7CCc8cnc(-c9cnc%10ccccc%10c9)nc8C7)(C5)C6)cc4)CC3)c2)C(=O)N1", "note": "(stereo not drawn) [Compound D2-16]", "pIC50": "5.00 to 6.00"}
{"smiles": "O=C1CCC(N2Cc3cc(C4CN(C5CCN(CC#Cc6ccc(OCC78CC(C(=O)N9CCc%10cnc(-c%11cnc%12ccccc%12c%11)nc%10C9)(C7)C8)cc6)CC5)C4)ccc3C2=O)C(=O)N1", "note": "(stereo not drawn) [Compound F1A-5]", "pIC50": "5.00 to 6.00"}
{"smiles": "O=C1CCC(N2C(=O)c3ccc(N4CCN(CC5CCN(CC#Cc6ccc(OCC78CC(C(=O)N9CCc%10cnc(-c%11cnc%12ccccc%12c%11)nc%10C9)(C7)C8)cc6)CC5)CC4)cc3C2=O)C(=O)N1", "note": "(stereo not drawn) [Compound F1B-4]", "pIC50": "5.00 to 6.00"}
{"smiles": "O=C1CCC(N2Cc3cc(CN4CC(N5CCN(CC#Cc6ccc(/C=C/c7ccc(C(=O)N8CCc9cnc(-c%10cnc%11ccccc%11c%10)nc9C8)cc7)cc6)CC5)C4)ccc3C2=O)C(=O)N1", "note": "(stereo not drawn) [Compound F2-2]", "pIC50": "4.00 to 4.30"}
{"smiles": "O=C1CCC(N2Cc3cc(N4CCC(N5CCN(CC#Cc6ccc(/C=C/c7ccc(C(=O)N8CCc9cnc(-c%10cnc%11ccccc%11c%10)nc9C8)cc7)cc6)CC5)CC4)ccc3C2=O)C(=O)N1", "note": "(stereo not drawn) [Compound F2-3]", "pIC50": "5.00 to 6.00"}
{"smiles": "O=C1CCC(N2Cc3c(CCCN4CC(N5CCN(CC#Cc6ccc(/C=C/c7ccc(C(=O)N8CCc9cnc(-c%10cnc%11ccccc%11c%10)nc9C8)cc7)cc6)CC5)C4)cccc3C2=O)C(=O)N1", "note": "(stereo not drawn) [Compound F2-5]", "pIC50": "< 3.70"}
{"smiles": "O=C1CCC(N2Cc3c(CCCN4CCC(N5CCN(CC#Cc6ccc(/C=C/c7ccc(C(=O)N8CCc9cnc(-c%10cnc%11ccccc%11c%10)nc9C8)cc7)cc6)CC5)CC4)cccc3C2=O)C(=O)N1", "note": "(stereo not drawn) [Compound F2-6]", "pIC50": "3.70 to 4.00"}
{"smiles": "CNc1nc(-c2cnc3ccccc3c2)nc2c1CCN(C(=O)c1ccc(/C=C/c3ccc(C#CCN4CCN(C5CCN(c6ccc7c(c6)CN(C6CCC(=O)NC6=O)C7=O)CC5)CC4)cc3)cc1)C2", "note": "(stereo not drawn) [Compound F2-7]", "pIC50": "5.00 to 6.00"}
{"smiles": "O=C1CCC(N2Cc3cc(N4CCC(N5CCN(CC#Cc6ccc(OCC78CC(C(=O)N9CCc%10cnc(-c%11cnc%12ccccc%12c%11)nc%10C9)(C7)C8)cc6)CC5)CC4)ccc3C2=O)C(=O)N1", "note": "(stereo not drawn) [Compound F2-10]", "pIC50": "5.00 to 6.00"}
{"smiles": "O=C1CCC(N2C(=O)c3cccc(N4CC5(CC(N6CCN(CC#Cc7ccc(/C=C/c8ccc(C(=O)N9CCc%10cnc(-c%11cnc%12ccccc%12c%11)nc%10C9)cc8)cc7)CC6)C5)C4)c3C2=O)C(=O)N1", "note": "(stereo not drawn) [Compound F3A-1]", "pIC50": "< 3.70"}
{"smiles": "O=C1CCC(N2Cc3c(CN4CC5(CC(N6CCN(CC#Cc7ccc(/C=C/c8ccc(C(=O)N9CCc%10cnc(-c%11cnc%12ccccc%12c%11)nc%10C9)cc8)cc7)CC6)C5)C4)cccc3C2=O)C(=O)N1", "note": "(stereo not drawn) [Compound F3A-2]", "pIC50": "3.70 to 4.00"}
{"smiles": "O=C1CCC(N2Cc3c(cccc3N3CC4(CC(CN5CCN(CC#Cc6ccc(/C=C/c7ccc(C(=O)N8CCc9cnc(-c%10cnc%11ccccc%11c%10)nc9C8)cc7)cc6)CC5)C4)C3)C2=O)C(=O)N1", "note": "(stereo not drawn) [Compound F3A-4]", "pIC50": "3.70 to 4.00"}
{"smiles": "CNc1nc(-c2cnc3ccccc3c2)nc2c1CCN(C(=O)c1ccc(/C=C/c3ccc(C#CCN4CCN(C(=O)CCCCCC(=O)N[C@H](C(=O)N5C[C@H](O)C[C@H]5C(=O)NCc5ccc(-c6scnc6C)cc5)C(C)(C)C)CC4)cc3)cc1)C2", "note": "[Compound G1-3]", "pIC50": "< 3.70"}
